Measured values as given in patent publication US20060069132A1, “Azolecarboxamide herbicides” (priority 2004, published 2006).

How the values were obtained:
[1] = tested on: morningglory; assay: Test B pre-/postemergence herbicide test; format: in vivo, Ipomoea coccinea; settings: for Morningglory plant response rating: postemergence
Method in brief: (§1)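 Plants compared with untreated controls 13–15 days post-treatment and given a visual 0–100 injury score. Applications: preemergence to seeds; postemergence at 1- to 4-leaf (2–18 cm); paddy species flooded, 2-leaf stage. Vehicle non-phytotoxic, surfactant included.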

[2] = tested on: barnyardgrass; assay: Test C flooded paddy test; format: in vivo, Echinochloa crus-galli
Method in brief: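 Weeds and wheat were sprayed after emergence, at a height of 2 to 18 cm (1–4 leaves), and paddy barnyardgrass was flooded and treated at two leaves. Assessment took place 12–14 days later in the greenhouse on a 0-to-100 visual control scale. A dash means no result was obtained.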

[3] = tested on: smallflower umbrella sedge; assay: Test C flooded paddy test; format: in vivo, Cyperus difformis
[4] = tested on: wild oat; assay: Test B postemergence herbicide test; format: in vivo, Avena fatua; settings: postemergence
Method in brief: (§2)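 After treating 2-leaf paddy plants or 2–18 cm postemergence plants (1 to 4 leaves) with formulated chemical, researchers kept them in a greenhouse for 13–15 days. Effects were judged visually versus controls: 0 indicates none, 100 total control.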

[5] = tested on: rice; assay: Test B flooded paddy test; format: in vivo, Oryza sativa; settings: 1000 g ai/ha, scale 0 to 100 (0 no effect, 100 complete control)
Method in brief: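 Read-out: visual comparison with controls, scored 0 to 100, where 100 means complete control and 0 no effect. Formulated chemicals were applied postemergence to plants 2–18 cm tall (1- to 4-leaf), or to flooded-paddy plants at the 2-leaf stage, then held 13 to 15 days under glass.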

[6] = tested on: rice; assay: Test C flooded paddy test; format: in vivo, Oryza sativa
Method in brief: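 Injury scored visually against controls on a 0 (no effect) to 100 (complete control) scale, 12 to 14 days after treatment in greenhouse. Flooded paddy plants treated at 2-leaf stage; postemergence plants at 1- to 4-leaf stage, 2 to 18 cm tall.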

[7] = tested on: wheat; assay: Test B postemergence herbicide test; format: in vivo, Triticum aestivum; design: key to Wheat plant response rating: 0 = no effect, 100 = complete control; settings: postemergence
Method in brief: as §2

[8] = tested on: giant foxtail; assay: Test B pre-/postemergence herbicide test; format: in vivo, Setaria faberi; settings: for Foxtail, Giant plant response rating: postemergence
Method in brief: (§3)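 Visual rating, 0 (no effect) to 100 (complete control), versus untreated controls after 13–15 d in greenhouse. Pre- and postemergence applications (postemergence plants 2–18 cm, 1–4 leaves); flooded paddy arm at 2-leaf stage. Compounds in non-phytotoxic solvent plus surfactant.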

[9] = tested on: pigweed; assay: Test B pre-/postemergence herbicide test; format: in vivo, Amaranthus retroflexus; settings: for Pigweed plant response rating: postemergence
Method in brief: as §3

[10] = tested on: cocklebur; assay: Test B pre-/postemergence herbicide test; format: in vivo, Xanthium strumarium; settings: for Cocklebur plant response rating: postemergence, scale 0 (no effect) to 100 (complete control)
Method in brief: as §1

[11] = tested on: corn; assay: Test B pre-/postemergence herbicide test; format: in vivo, Zea mays; settings: for Corn plant response rating: postemergence
Method in brief: as §3

[12] = tested on: barnyardgrass; assay: Test B pre-/postemergence herbicide test; format: in vivo, Echinochloa crus-galli; settings: for Barnyardgrass plant response rating: postemergence, scale 0 (no effect) to 100 (complete control)
Method in brief: as §1

[13] = tested on: velvetleaf; assay: Test B pre-/postemergence herbicide test; format: in vivo, Abutilon theophrasti; settings: for Velvetleaf plant response rating: postemergence
Method in brief: as §3

[14] = tested on: small flower umbrella sedge; assay: Test B flooded paddy test; format: in vivo, Cyperus difformis; settings: 1000 g ai/ha, scale 0 to 100 (0 no effect, 100 complete control)
Method in brief: (§4)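 Formulated test chemicals went onto postemergence plants measuring 2 to 18 cm, at one to four leaves. For the paddy assay, species had reached two leaves. Scoring took place 13–15 days later by eye, relative to untreated plants, using 0 for no effect up to 100 for full control.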

[15] = tested on: blackgrass; assay: Test B postemergence herbicide test; format: in vivo, Alopecurus myosuroides; settings: postemergence, visual rating, scale 0 (no effect) to 100 (complete control)
Method in brief: as §4

[16] = tested on: Surinam grass; assay: Test B pre-/postemergence herbicide test; format: in vivo, Urochloa decumbens; settings: for Surinam Grass plant response rating: postemergence
Method in brief: as §3

[17] = tested on: large crabgrass; assay: Test B pre-/postemergence herbicide test; format: in vivo, Digitaria sanguinalis; settings: for Crabgrass, Large plant response rating: postemergence
Method in brief: as §3

[18] = tested on: ducksalad; assay: Test B flooded paddy test; format: in vivo, Heteranthera limosa; settings: 1000 g ai/ha, scale 0 to 100 (0 no effect, 100 complete control)
Method in brief: as §4

[19] = tested on: ducksalad; assay: Test C flooded paddy test; format: in vivo, Heteranthera limosa
[20] = tested on: rice; assay: Test B pre-/postemergence herbicide test; format: in vivo, Oryza sativa; settings: 0 = no effect, 100 = complete control, preemergence
Method in brief: as §3

[21] = tested on: barnyardgrass; assay: Test B flooded paddy test; format: in vivo, Echinochloa crus-galli; settings: 1000 g ai/ha, scale 0 to 100 (0 no effect, 100 complete control)
Method in brief: as §4

[22] = tested on: lambsquarters; assay: Test B pre-/postemergence herbicide test; format: in vivo, Chenopodium album; settings: for Lambsquarters plant response rating: postemergence
Method in brief: as §3

[23] = 125 g ai/ha, 0 = no effect, 100 = complete control, preemergence
[24] = 500 g ai/ha, visual rating, 0 = no effect, 100 = complete control, preemergence
[25] = 125 g ai/ha, visual rating, scale 0 (no effect) to 100 (complete control)
[26] = 500 g ai/ha, scale 0 to 100, 0 is no effect, 100 is complete control
[27] = 125 g ai/ha, scale 0 to 100 (0 no effect, 100 complete control)
[28] = 250 g ai/ha, scale of 0 to 100, 0 is no effect, 100 is complete control
[29] = 500 g ai/ha, visual rating after 12 to 14 days, scale 0 to 100 (0 no effect, 100 complete control)

CCNC(=O)c1cncc(NC(=O)c2cc(C(C)(C)C)nn2CC)c1 [Compound 259]
Morningglory plant response rating (0 to 100 scale) [1, 23]: 0 | Plant response rating, Morningglory [1, 24]: 90 | Morningglory plant response rating [1, 25]: 0 | Morningglory plant response rating [1, 26]: 0 | Barnyardgrass plant response rating ([2]; 62 g ai/ha, scale 0 to 100 (0 no effect, 100 complete control)): 0 | Barnyardgrass plant response rating [2, 27]: 0 | Barnyardgrass plant response rating [2, 28]: 0 | Plant response rating, Barnyardgrass [2, 29]: 0 | Sedge, Umbrella plant response rating ([3]; 62 g ai/ha, scale 0 to 100): 0 | Sedge, Umbrella plant response rating [3, 27]: 35 | Sedge, Umbrella plant response rating [3, 28]: 55 | Plant response rating, Sedge, Umbrella [3, 29]: 70 | Oat, Wild plant response rating [4, 25]: 10 | Oat, Wild plant response rating [4, 26]: 20 | Rice plant response rating [5]: 70 | Rice plant response rating ([6]; 62 g ai/ha, scale 0 to 100): 0 | Rice plant response rating [6, 27]: 0 | Rice plant response rating [6, 28]: 0 | Plant response rating, Rice [6, 29]: 0 | Wheat plant response rating [7, 25]: 10 | Wheat plant response rating [7, 26]: 20 | Foxtail, Giant plant response rating (0 to 100 scale) [8, 23]: 0 | Plant response rating, Foxtail, Giant [8, 24]: 70 | Foxtail, Giant plant response rating [8, 25]: 0 | Foxtail, Giant plant response rating [8, 26]: 0 | Pigweed plant response rating (0 to 100 scale) [9, 23]: 0 | Plant response rating, Pigweed [9, 24]: 100 | Pigweed plant response rating [9, 25]: 30 | Pigweed plant response rating [9, 26]: 90 | Cocklebur plant response rating (0 to 100 scale) [10, 23]: 0 | Plant response rating, Cocklebur [10, 24]: 0 | Cocklebur plant response rating ([10]; 125 g ai/ha, visual rating): 0 | Cocklebur plant response rating ([10]; 500 g ai/ha, visual rating): 20 | Corn plant response rating (0 to 100 scale) [11, 23]: 0 | Plant response rating, Corn [11, 24]: 0 | Corn plant response rating [11, 25]: 10 | Corn plant response rating [11, 26]: 20 | Barnyardgrass plant response rating (0 to 100 scale) [12, 23]: 0 | Plant response rating, Barnyardgrass [12, 24]: 70 | Barnyardgrass plant response rating ([12]; 125 g ai/ha, visual rating): 0 | Barnyardgrass plant response rating ([12]; 500 g ai/ha, visual rating): 0 | Velvetleaf plant response rating (0 to 100 scale) [13, 23]: 0 | Plant response rating, Velvetleaf [13, 24]: 0 | Velvetleaf plant response rating [13, 25]: 0 | Velvetleaf plant response rating [13, 26]: 0 | Sedge, Umbrella plant response rating [14]: 70 | Blackgrass plant response rating ([15]; 125 g ai/ha): 10 | Blackgrass plant response rating ([15]; 500 g ai/ha): 20 | Surinam Grass plant response rating (0 to 100 scale) [16, 23]: 0 | Plant response rating, Surinam Grass [16, 24]: 30 | Surinam Grass plant response rating [16, 25]: 10 | Surinam Grass plant response rating [16, 26]: 20 | Crabgrass, Large plant response rating (0 to 100 scale) [17, 23]: 0 | Plant response rating, Crabgrass, Large [17, 24]: 50 | Crabgrass, Large plant response rating [17, 25]: 0 | Crabgrass, Large plant response rating [17, 26]: 20 | Ducksalad plant response rating [18]: 90 | Ducksalad plant response rating ([19]; 62 g ai/ha, scale 0 to 100): 0 | Ducksalad plant response rating [19, 27]: 60 | Ducksalad plant response rating [19, 28]: 65 | Plant response rating, Ducksalad [19, 29]: 75 | Rice plant response rating (0 to 100 scale) ([20]; 125 g ai/ha): 0 | Plant response rating, Rice ([20]; 500 g ai/ha, visual rating): 0 | Barnyardgrass plant response rating [21]: 30 | Lambsquarters plant response rating (0 to 100 scale) [22, 23]: 0 | Lambsquarters plant response rating [22, 25]: 10 | Lambsquarters plant response rating [22, 26]: 30
